Reference: ChEMBL document CHEMBL5143721, “Novel Hydroxychalcone-Based Dual Inhibitors of Aldose Reductase and α-Glucosidase as Potential Therapeutic Agents against Diabetes Mellitus and Its Complications” (J Med Chem, 2022)
Calls of active or inactive are those of the source. The rule behind the calls is not given here.

How the values were obtained:
[1] = Inhibition of Wistar rat lens ALR2 using D,L-glyceraldehyde as substrate preincubated for 10 mins in presence of NADPH followed by substrate addition and measured after 4 mins; assay type: tissue-based
[2] = Inhibition of Wistar rat kidney ALR1 using sodium D-glucuronate as substrate preincubated for 10 mins in presence of NADPH followed by substrate addition and measured after 4 mins; assay type: tissue-based
[3] = Inhibition of Saccharomyces cerevisiae Alpha-glucosidase using p-nitrophenyl glucopyranoside as substrate preincubated for 5 mins followed by substrate addition and measured for 30 mins
[4] = species: Rattus norvegicus; assay: Selectivity index, ratio of IC50 for Wistar rat kidney ALR1 to IC50 for Wistar rat lens ALR2
[5] = Antioxidant activity assessed as DPPH radical scavenging activity at 100 uM incubated for 30 mins by DPPH assay relative to control; assay type: functional
[6] = Antioxidant activity assessed as DPPH radical scavenging activity at 50 uM incubated for 30 mins by DPPH assay relative to control; assay type: functional
[7] = Antioxidant activity assessed as DPPH radical scavenging activity at 10 uM incubated for 30 mins by DPPH assay relative to control; assay type: functional
[8] = test system: Brain; assay: Antioxidant activity in rat brain homogenate assessed as inhibition of lipid peroxidation by measuring MDA concentration at 100 uM by TBARS assay relative to control; assay type: functional, tissue-based; set-up: scale not given: the % may be the effect or the level left
[9] = test system: Brain; assay: Antioxidant activity in rat brain homogenate assessed as inhibition of lipid peroxidation by measuring MDA concentration at 50 uM by TBARS assay relative to control; assay type: functional, tissue-based; set-up: scale not given: the % may be the effect or the level left
[10] = Octanol/buffer distribution coefficient, log D of compound at pH 7.4 incubated for 24 hrs by shake flask based HPLC method; assay type: physicochemical
[11] = test system: Rattus norvegicus; assay: Antidiabetic activity against STZ-induced diabetic Sprague-Dawley rat model assessed as reduction in fasting blood glucose level at 80 mg/kg, IG administered once daily for 28 days; assay type: functional; set-up: scale not given: the % may be the effect or the level left; details: time 28 day
[12] = In vivo inhibition of ALR2 in STZ-induced diabetic Sprague-Dawley rat model assessed as reduction in ALR2 activity in lens at 80 mg/kg, IG administered once daily for 28 days relative to control; assay type: functional; set-up: scale not given: the % may be the effect or the level left; details: time 28 day
[13] = test system: Brain; assay: Antioxidant activity in rat brain homogenate assessed as inhibition of lipid peroxidation by measuring MDA concentration at 1 uM by TBARS assay relative to control; assay type: functional, tissue-based; set-up: scale not given: the % may be the effect or the level left
[14] = Antioxidant activity assessed as DPPH radical scavenging activity at 5 uM incubated for 30 mins by DPPH assay relative to control; assay type: functional
[15] = Antioxidant activity assessed as DPPH radical scavenging activity at 1 uM incubated for 30 mins by DPPH assay relative to control; assay type: functional
[16] = test system: Brain; assay: Antioxidant activity in rat brain homogenate assessed as inhibition of lipid peroxidation by measuring MDA concentration at 5 uM by TBARS assay relative to control; assay type: functional, tissue-based; set-up: scale not given: the % may be the effect or the level left
[17] = test system: HEK-293T; assay: Cytotoxicity against HEK293T cells at 15 to 200 micromol/L by MTT assay; assay type: toxicity, cell-based; details: human, dose 15-200 µmol/L
[18] = test system: Rattus norvegicus; assay: Antidiabetic activity against STZ-induced diabetic Sprague-Dawley rat model assessed as reduction in fasting blood glucose level at 160 mg/kg, IG administered once daily for 28 days; assay type: functional; set-up: scale not given: the % may be the effect or the level left; details: time 28 day
[19] = test system: Rattus norvegicus; assay: Antidiabetic activity against 12 hrs fasted STZ-induced diabetic Sprague-Dawley rat model assessed as reduction in blood glucose level at 160 mg/kg, IG administered once daily for 28 days followed by glucose addition after 30 mins post cpd treatment and measured after 30 mins post glucose treatment by oral glucose tolerance test; assay type: functional, organism-based; details: time 673.0 hrs
[20] = test system: Rattus norvegicus; assay: Antidiabetic activity against 12 hrs fasted STZ-induced diabetic Sprague-Dawley rat model assessed as reduction in AUC of blood glucose level at 160 mg/kg, IG administered once daily for 28 days followed by maltose addition after 30 mins post cpd treatment and measured after 30 mins post maltose treatment; assay type: functional; set-up: scale not given: the % may be the effect or the level left; details: time 673 hrs
[21] = test system: Rattus norvegicus; assay: Antidiabetic activity against STZ-induced diabetic Sprague-Dawley rat model assessed as increase in liver glycogen levels at 160 mg/kg, IG administered once daily for 28 days; assay type: functional; details: time 28 day
[22] = In vivo inhibition of ALR2 in STZ-induced diabetic Sprague-Dawley rat model assessed as reduction in ALR2 activity in lens at 160 mg/kg, IG administered once daily for 28 days relative to control; assay type: functional; set-up: scale not given: the % may be the effect or the level left; details: time 28 day
[23] = test system: Rattus norvegicus; assay: Antidiabetic activity against STZ-induced diabetic Sprague-Dawley rat model assessed as reduction in total cholesterol level in serum at 160 mg/kg, IG administered once daily for 28 days relative to control; assay type: functional; set-up: scale not given: the % may be the effect or the level left; details: time 28 day
[24] = test system: Rattus norvegicus; assay: Antidiabetic activity against STZ-induced diabetic Sprague-Dawley rat model assessed as reduction in triglycerides level in serum at 160 mg/kg, IG administered once daily for 28 days relative to control; assay type: functional; set-up: scale not given: the % may be the effect or the level left; details: time 28 day
[25] = test system: Rattus norvegicus; assay: Antidiabetic activity against STZ-induced diabetic Sprague-Dawley rat model assessed as reduction in triglycerides level in liver at 160 mg/kg, IG administered once daily for 28 days relative to control; assay type: functional; set-up: scale not given: the % may be the effect or the level left; details: time 28 day
[26] = test system: Brain; assay: Antioxidant activity in rat brain homogenate assessed as inhibition of lipid peroxidation by measuring MDA concentration at 10 uM relative to control; assay type: functional, tissue-based; set-up: scale not given: the % may be the effect or the level left

Row | Structure (SMILES) | IC50 [1] [µM] | IC50 [2] [µM] | IC50 [3] [µM] | Ratio IC50 [4] | Activity [5] [%] | Activity [6] [%] | Activity [7] [%] | Activity [8] [%] | Activity [9] [%] | logD at 24 h [10] | other results
1 | O=C(/C=C/c1ccc(O)c(F)c1)c1cccc2[nH]c(=O)oc12 | 3.74 | 3.75 | 105 | 1.19 | – | – | – | – | – | – | –
2 | CC(C)=CCn1c(=O)oc2c(C(=O)/C=C/c3cc(F)c(O)c(F)c3)cccc21 | 0.097 | 4.75 | 59.9 | 49 | 52.9 | 35 | 9.1 | 38.3 | 25.9 | 1.13 | –
3 | COC(=O)Cn1c(=O)oc2ccc(/C=C/c3ccc(O)cc3)cc21 | > 100 | – | – | – | – | – | – | – | – | – | –
4 | CC(/C=C1\SC(=S)N(CC(=O)O)C1=O)=C\c1ccccc1 | 0.119 | 5.29 | – | 44.5 | – | – | – | – | – | 0.21 | Activity [11]: 20.9%; Activity [12]: 62.1%
5 | O=C(/C=C/c1ccc(O)cc1)c1cccc2[nH]c(=O)oc12 | 2.85 | > 100 | 104 | > 35.1 | – | – | – | – | – | – | –
6 | COC(=O)Cn1c(=O)oc2c(C(=O)/C=C/c3ccc(OC)cc3)cccc21 | > 100 | > 100 | – | – | – | – | – | – | – | – | –
7 | CC(C)=CCn1c(=O)oc2c(C(=O)/C=C/c3ccc(O)cc3)cccc21 | 0.201 | > 100 | 41.5 | > 498 | 39.1 | 18.3 | 7.1 | 38.7 | 27 | 1.65 | –
8 | COc1cc(O)ccc1/C=C/C(=O)c1cccc2[nH]c(=O)oc12 | 16.7 | > 100 | – | > 5.98 | – | – | – | – | – | – | –
9 | COC(=O)Cn1c(=O)oc2c(C(=O)/C=C/c3cccc(O)c3)cccc21 | > 100 | > 100 | – | – | – | – | – | – | – | – | –
10 | COC(=O)Cn1c(=O)oc2c(C(=O)/C=C/c3ccc(O)c(C(F)(F)F)c3)cccc21 | 56.1 | > 100 | – | > 1.78 | – | – | – | – | – | – | –
11 | CC(C)=CCn1c(=O)oc2c(C(=O)/C=C/c3ccc(O)c(O)c3)cccc21 | 0.149 | 7.48 | – | 39.7 | 98 | 96 | 93 | 97 | 90.7 | 0.98 | Activity [13]: 35%; Activity [14]: 90.9%; Activity [15]: 41.2%; Activity [16]: 52%; Activity [17]: Non-Toxic; Activity [18]: 20.7%; Activity [19]: Active; Activity [20]: 21.16%; Activity [21]: 43.83%; Activity [22]: 47.2%; Activity [23]: 50.7%; Activity [24]: 64.3%; Activity [25]: 32.8%; Activity [26]: 65.8%
12 | COC(=O)Cn1c(=O)oc2c(C(=O)/C=C/c3ccc(O)c(Cl)c3)cccc21 | 12.2 | > 100 | – | > 8.82 | – | – | – | – | – | – | –
13 | COc1ccc(/C=C/C(=O)c2cccc3[nH]c(=O)oc23)cc1 | > 100 | > 100 | – | – | – | – | – | – | – | – | –
14 | COC(=O)Cn1c(=O)oc2c(C(=O)/C=C/c3cc(F)c(O)c(F)c3)cccc21 | 0.111 | 7.84 | 71.2 | 70.7 | 52.9 | 35 | 9.1 | 28 | 20.9 | 1.07 | –
15 | COC(=O)Cn1c(=O)oc2c(C(=O)/C=C/c3ccc(O)cc3)cccc21 | 0.226 | > 100 | 55.4 | > 415 | 46.3 | 30 | 10.6 | 38 | 24.1 | 1.46 | –
16 | COC(=O)Cn1c(=O)oc2c(/C=C/c3ccc(O)cc3)cccc21 | 11.7 | – | – | – | – | – | – | – | – | – | –
